Literature values as cited in patent publication US20130023661A1, “FLUORINATING REAGENTS WITH (PERFLUORALKYL) FLUOROPHOSPHATE ANION” (MERCK PATENT GESELLSCHAFT MIT BESCHRANKTER HAFTUNG, priority 2010, published 2013).

Conditions: stored in a cool, dry place

In the case of `F[N+]12CC[N+](CCl)(CC1)CC2` [F-TEDA-BF4, 1-chloromethyl-4-fluorodiazoniabicyclo[2.2.2]octane bistetrafluoroborate], the guaranteed storage stability is given as “not more than one year”.
